# Assay results published in patent US4134980A, “Phenylalkylamino-alkyl derivatives of quinazolinone and phthalazinone” (Boehringer Ingelheim GmbH, priority 1976, dated 1979).
# Where a name gives a salt, the structure may show the parent alone.
# Columns and labels:
# heart rate [1] = assay: Effect on heart rate in anesthetized cats (Table I); format: in vivo
# heart rate [2] = assay: Effect on heart rate in anesthetized dogs (Table II); format: in vivo
# [3] = LD50 in mice, observation time of 14 days; conditions: mouse, in vivo, iv, observation time of 14 days
# Text: Additionally, it should be noted that at all dosage levels the test compounds were tolerated very well and produced no toxic side-effects.
Structure (SMILES),Decrease in heart rate (heart rate [1]; 0.5 mg/kg i.v.) [beats/minute],Duration of Effective action (heart rate [1]; 0.5 mg/kg i.v.) [min],Decrease in heart rate (heart rate [1]; 1.0 mg/kg i.v.) [beats/minute],Duration of Effective action (heart rate [1]; 1.0 mg/kg i.v.) [min],Decrease in heart rate (heart rate [1]; 2.0 mg/kg i.v.) [beats/minute],Duration of Effective action (heart rate [1]; 2.0 mg/kg i.v.) [min],Decrease in heart rate (heart rate [2]; 0.25 mg/kg i.v.) [beats/minute],Duration of Effective action (heart rate [2]; 0.25 mg/kg i.v.) [min],Decrease in heart rate (heart rate [2]; 1.0 mg/kg i.v.) [beats/minute],Duration of Effective action (heart rate [2]; 1.0 mg/kg i.v.) [min],further results
"COc1ccc(CCN(C)CCCn2nc(C)c3cc(OC)c(OC)cc3c2=O)cc1OC.Cl [A, 1-[4-methyl-6,7-dimethoxy-1(2H)-phthalazinone-2-yl]-3-[N-methyl-N-(2-(3,4-dimethoxyphenyl)-ethyl)-amino]-propane hydrochloride]",-16,> 50,-23,> 70,-37,> 70,-10,17,-16,24,Decrease in heart rate (heart rate [1]; 2.0 mg/kg i.d.): -25 beats/minute; Duration of Effective action (heart rate [1]; 2.0 mg/kg i.d.): > 74 min; Decrease in heart rate (heart rate [1]; 4.0 mg/kg i.d.): -34 beats/minute; Duration of Effective action (heart rate [1]; 4.0 mg/kg i.d.): > 60 min; Decrease in heart rate (heart rate [1]; 10.0 mg/kg i.d.): -41 beats/minute; Duration of Effective action (heart rate [1]; 10.0 mg/kg i.d.): > 50 min; Decrease in heart rate (heart rate [2]; 0.5 mg/kg i.v.): -12 beats/minute; Duration of Effective action (heart rate [2]; 0.5 mg/kg i.v.): 15 min; LD50 at 336 h [3]: 63 mg/kg
"COc1ccc(CCN(C)CCCn2nc(C)c3cc(OC)c(OC)cc3c2=O)cc1.Cl [B, 1-[4-methyl-6,7-dimethoxy-1(2H)-phthalazinone-2-yl]-3-[N-methyl-N-(2-(4-methoxyphenyl)-ethyl)-amino]-propane hydrochloride]",,,,,,,-6,24,-23,46,
"COc1ccc(CCN(C)CCCn2nc(C(C)C)c3cc(OC)c(OC)cc3c2=O)cc1OC [C, 1-[4-isopropyl-6,7-dimethoxy-1(2H)-phthalizinone-2-yl]-3-[N-methyl-N-(2-(3,4-dimethoxyphenyl)-ethyl)-amino]-propane hydrochloride]",,,,,,,,,-10,17,Decrease in heart rate (heart rate [2]; 2.0 mg/kg i.v.): -29 beats/minute; Duration of Effective action (heart rate [2]; 2.0 mg/kg i.v.): 10 min
"COc1ccc(CCN(C)CCCn2ncc3cc(OC)c(OC)cc3c2=O)cc1.Cl [D, 1-[6,7-dimethoxy-1(2H)-phthalazinone-2-yl]-3-[N-methyl-N-(2-(4-methoxyphenyl)-ethyl)-amino]-propane hydrochloride]",-6,10,-13,25,-14,25,,,,,
"COc1ccc(CCN(C)CCn2nc(C)c3cc(OC)c(OC)cc3c2=O)cc1OC [E, 1-[4-methyl-6,7-dimethoxy-1(2H)-phthalizinone-2-yl]-3-[N-methyl-N-(2-(3,4-dimethoxyphenyl)-ethyl)-amino]-ethane hydrochloride]",,,-10,9,-13,10,,,,,
